Results taken from article PMC12892976, “Alkylation-based optimization of antifungal FPPS inhibitors yields a potent, broad-spectrum lipophilic zoledronate derivative” (mBio, 2025).
In brackets after ≈: the same amount, converted by molar mass. Like-named read-outs stand apart in the source and are kept apart here.

How the values were obtained:
Aspergillus fumigatus [1] = assay: MIC/MFC broth microdilution (CLSI); conditions: ATCC204305
Procedure: (§1) Antifungal susceptibility was determined by broth microdilution according to the CLSI guidelines described in M27-Ed4 ([16]). […] MFC was determined by back-plating drug-treated cultures from MIC broths onto SDA plates. The MFC was defined as the lowest concentration from which no colonies could be cultured.

[2] = tested on: Cryptococcus deuterogattii; assay: checkerboard drug interaction (FICI, MICc); type: cell-based; conditions: for INH FD (MIC-MICc fold decrease): fold decrease of inhibitor MIC;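 for all read-outs here: simplified diagonal checkerboard screen pairing antifungal drugs with FPPS inhibitors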
Procedure: (§2) Drug interactions between antifungals and FPPS inhibitors were investigated using a simplified checkerboard diagonal screening method ([45]). […] FICIs were determined according to the Loewe additivity model ([17]).

Saccharomyces cerevisiae = assay: MIC/MFC broth microdilution (CLSI); type: cell-based; conditions: Saccharomyces cerevisiae S288c
Procedure: as §1

HEK-293T cells = assay: MTT reduction cytotoxicity assay; type: cell-based; conditions: Homo sapiens
Trichophyton tonsurans = assay: checkerboard drug interaction (FICI, MICc); type: cell-based;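 note: simplified diagonal checkerboard screen combining antifungals with FPPS inhibitors, with FICI calculated under the Loewe additivity model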
Procedure: as §2

[3] = tested on: Cryptococcus deuterogattii; assay: MIC/MFC broth microdilution (CLSI);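 note: broth microdilution per CLSI M27-Ed4. MFC is the lowest concentration yielding no colonies when MIC broths are subcultured onto SDA plates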
Procedure: as §1

Aspergillus fumigatus [4] = assay: checkerboard drug interaction (FICI, MICc); type: cell-based; conditions: for INH FD (MIC-MICc fold decrease): fold decrease of inhibitor MIC;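 for all read-outs here: simplified diagonal checkerboard screen pairing antifungals with FPPS inhibitors against Aspergillus fumigatus, with FICI calculated under the Loewe additivity model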
Procedure: as §2

[5] = C. deuterogattii, FLC:INH combination
[6] = C. deuterogattii, ITR:INH combination
[7] = C. deuterogattii, KET:INH combination
[8] = A. fumigatus, FLC:INH combination
[9] = A. fumigatus, ITR:INH combination
[10] = A. fumigatus, KET:INH combination

O=P(O)(O)C(O)(Cn1ccnc1)P(=O)(O)O [ZOL, zoledronate]
MFC (Aspergillus fumigatus [1]): > 128 µg/mL
MIC (Aspergillus fumigatus [1]): > 128 µg/mL
MIC / MEC (Aspergillus fumigatus [1]): >256 µg/mL
FICI ([2]; 5FC:ZOL): 1.02
FICI ([2]; AMB:ZOL): 2
FICI [2, 5]: 0.25
INH MICc ([2]; C. deuterogattii, FLC:INH combination, MIC of the inhibitor in combination with FLC): 8
FLC FD (MIC-MICc fold decrease) ([2]; C. deuterogattii, FLC:INH combination, fold decrease of FLC MIC): 8
INH FD (MIC-MICc fold decrease) [2, 5]: 8
FICI [2, 6]: 0.38
INH MICc ([2]; C. deuterogattii, ITR:INH combination, MIC of the inhibitor in combination with ITR): 8
ITR FD (MIC-MICc fold decrease) ([2]; C. deuterogattii, ITR:INH combination, fold decrease of ITR MIC): 4
INH FD (MIC-MICc fold decrease) [2, 6]: 8
FICI [2, 7]: 0.31
INH MICc ([2]; C. deuterogattii, KET:INH combination, MIC of the inhibitor in combination with KET): 16
KET FD (MIC-MICc fold decrease) ([2]; C. deuterogattii, KET:INH combination, fold decrease of KET MIC): 16
INH FD (MIC-MICc fold decrease) [2, 7]: 4
FICI ([2]; CAS:ZOL): 1.5
FICI ([2]; FLC:ZOL): 0.25
FICI ([2]; ITR:ZOL): 0.38
FICI ([2]; KET:ZOL): 0.31
FICI ([2]; VOR:ZOL): 0.5
bisphosphonate MICc ([2]; ZOL with 5FC): 128
bisphosphonate MICc ([2]; ZOL with AMB): 128
bisphosphonate MICc ([2]; ZOL with CAS): 64
bisphosphonate MICc ([2]; ZOL with FLC): 8
bisphosphonate MICc ([2]; ZOL with ITR): 8
bisphosphonate MICc ([2]; ZOL with KET): 16
bisphosphonate MICc ([2]; ZOL with VOR): 32
FICI ([2]; with FLC, Cryptococcus deuterogattii): 0.25
FICI ([2]; with ITR, Cryptococcus deuterogattii): 0.38
FICI ([2]; with KET, Cryptococcus deuterogattii): 0.31
MFC (Saccharomyces cerevisiae): > 128 µg/mL
MIC (Saccharomyces cerevisiae): > 128 µg/mL
MIC / MEC (Saccharomyces cerevisiae): 256 µg/mL (≈ 941 µM)
IC50 (HEK-293T cells; HEK-293T, read-out: HEK IC50): > 256 µg/mL
IC50 (HEK-293T cells; HEK-293T cells, projected value, read-out: predicted IC50): > 256 µg/mL
FICI (Trichophyton tonsurans; 5FC:ZOL): 2
FICI (Trichophyton tonsurans; AMB:ZOL): 3.92
FICI (Trichophyton tonsurans; CAS:ZOL): 1
FICI (Trichophyton tonsurans; FLC:ZOL): 0.31
FICI (Trichophyton tonsurans; ITR:ZOL): 0.38
FICI (Trichophyton tonsurans; KET:ZOL): 0.25
FICI (Trichophyton tonsurans; VOR:ZOL): 0.61
bisphosphonate MICc (Trichophyton tonsurans; ZOL with 5FC): 128
bisphosphonate MICc (Trichophyton tonsurans; ZOL with AMB): 256
bisphosphonate MICc (Trichophyton tonsurans; ZOL with CAS): 64
bisphosphonate MICc (Trichophyton tonsurans; ZOL with FLC): 8
bisphosphonate MICc (Trichophyton tonsurans; ZOL with ITR): 16
bisphosphonate MICc (Trichophyton tonsurans; ZOL with KET): 16
bisphosphonate MICc (Trichophyton tonsurans; ZOL with VOR): 16
MFC ([3]; Cryptococcus deuterogattii): 128 µg/mL (≈ 470 µM)
MIC ([3]; Cryptococcus deuterogattii): 128 µg/mL (≈ 470 µM)
MIC / MEC ([3]; Cryptococcus deuterogattii R265): 128 µg/mL (≈ 470 µM)
FICI (Aspergillus fumigatus [4]; 5FC:ZOL): 2
FICI (Aspergillus fumigatus [4]; [8]): 0.75
FLC MICc (Aspergillus fumigatus [4]; A. fumigatus, FLC:INH combination, MIC of FLC in combination with the inhibitor): 64
INH MICc (Aspergillus fumigatus [4]; A. fumigatus, FLC:INH combination, MIC of the inhibitor in combination with FLC): 64
FLC FD (MIC-MICc fold decrease) (Aspergillus fumigatus [4]; A. fumigatus, FLC:INH combination, fold decrease of FLC MIC): 2
INH FD (MIC-MICc fold decrease) (Aspergillus fumigatus [4]; [8]): 4
FICI (Aspergillus fumigatus [4]; [9]): 0.51
ITR MICc (Aspergillus fumigatus [4]; A. fumigatus, ITR:INH combination, MIC of ITR in combination with the inhibitor): 0.063
INH MICc (Aspergillus fumigatus [4]; A. fumigatus, ITR:INH combination, MIC of the inhibitor in combination with ITR): 2
ITR FD (MIC-MICc fold decrease) (Aspergillus fumigatus [4]; A. fumigatus, ITR:INH combination, fold decrease of ITR MIC): 2
INH FD (MIC-MICc fold decrease) (Aspergillus fumigatus [4]; [9]): 128
FICI (Aspergillus fumigatus [4]; [10]): 0.75
KET MICc (Aspergillus fumigatus [4]; A. fumigatus, KET:INH combination, MIC of KET in combination with the inhibitor): 2
INH MICc (Aspergillus fumigatus [4]; A. fumigatus, KET:INH combination, MIC of the inhibitor in combination with KET): 64
KET FD (MIC-MICc fold decrease) (Aspergillus fumigatus [4]; A. fumigatus, KET:INH combination, fold decrease of KET MIC): 2
INH FD (MIC-MICc fold decrease) (Aspergillus fumigatus [4]; [10]): 4
FICI (Aspergillus fumigatus [4]; AMB:ZOL): 1.03
FICI (Aspergillus fumigatus [4]; CAS:ZOL): 0.75
FICI (Aspergillus fumigatus [4]; FLC:ZOL): 0.75
FICI (Aspergillus fumigatus [4]; ITR:ZOL): 0.51
